Laboratory results taken from PubChem BioAssay (NCI).
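In this assay, cells in 96-well plates receive the compound at five concentrations for 48 hours. Endpoints are linearly interpolated between the surrounding concentrations. The concentration for 50% growth inhibition is given as GI50. Definition used: TGI = concentration required for complete inhibition of growth.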

Experiments:
Assay in all cases: NCI tumour cell line growth inhibition, 48 h
MDA-MB-231 breast = tested on: MDA-MB-231 breast
BT-549 breast = tested on: BT-549 breast
SF-268 CNS = tested on: SF-268 CNS
SF-295 CNS = tested on: SF-295 CNS
IGROV1 ovarian = tested on: IGROV1 ovarian
EKVX NSCLC = tested on: EKVX NSCLC
NCI-H23 lung = tested on: NCI-H23 lung
NCI/ADR-RES ovarian = tested on: NCI/ADR-RES ovarian
SN12C renal = tested on: SN12C renal
A549 NSCLC = tested on: A549 NSCLC
LOX IMVI melanoma = tested on: LOX IMVI melanoma
MALME-3M melanoma = tested on: MALME-3M melanoma
OVCAR-5 ovarian = tested on: OVCAR-5 ovarian
A498 renal = tested on: A498 renal
MOLT-4 leukemia = tested on: MOLT-4 leukemia
UACC-257 melanoma = tested on: UACC-257 melanoma
SK-MEL-28 melanoma = tested on: SK-MEL-28 melanoma
MDA-MB-435 = tested on: MDA-MB-435
DU-145 prostate = tested on: DU-145 prostate
SNB-19 CNS = tested on: SNB-19 CNS
HT29 colon = tested on: HT29 colon
OVCAR-3 ovarian = tested on: OVCAR-3 ovarian
RPMI-8226 leukemia = tested on: RPMI-8226 leukemia
HCC-2998 colon = tested on: HCC-2998 colon
SK-MEL-5 melanoma = tested on: SK-MEL-5 melanoma
HCT-116 colon = tested on: HCT-116 colon
HOP-62 NSCLC = tested on: HOP-62 NSCLC
SW-620 colon = tested on: SW-620 colon
RXF 393 renal = tested on: RXF 393 renal
OVCAR-8 ovarian = tested on: OVCAR-8 ovarian
UO-31 renal = tested on: UO-31 renal
PC-3 prostate = tested on: PC-3 prostate
KM12 colon = tested on: KM12 colon
HCT-15 colon = tested on: HCT-15 colon
HS 578T breast = tested on: HS 578T breast
SK-MEL-2 melanoma = tested on: SK-MEL-2 melanoma
SR leukemia = tested on: SR leukemia
UACC-62 melanoma = tested on: UACC-62 melanoma
HL-60(TB) leukemia = tested on: HL-60(TB) leukemia
NCI-H460 lung = tested on: NCI-H460 lung
K-562 leukemia = tested on: K-562 leukemia
SK-OV-3 ovarian = tested on: SK-OV-3 ovarian
TK-10 renal = tested on: TK-10 renal
OVCAR-4 ovarian = tested on: OVCAR-4 ovarian
786-0 renal = tested on: 786-0 renal
SNB-75 CNS = tested on: SNB-75 CNS
ACHN renal = tested on: ACHN renal
SF-539 CNS = tested on: SF-539 CNS
CAKI-1 renal = tested on: CAKI-1 renal
CCRF-CEM leukemia = tested on: CCRF-CEM leukemia
NCI-H226 lung = tested on: NCI-H226 lung
NCI-H522 lung = tested on: NCI-H522 lung
M14 melanoma = tested on: M14 melanoma
MCF7 breast = tested on: MCF7 breast
T-47D breast = tested on: T-47D breast
U251 CNS = tested on: U251 CNS
COLO 205 colon = tested on: COLO 205 colon

CS(=O)(=O)CCN(CC#N)Cc1ccc(-c2ccc3ncnc(Nc4ccc(OCc5cccc(F)c5)c(Cl)c4)c3c2)o1
GI50 (MDA-MB-231 breast): 8.35 µM | TGI (MDA-MB-231 breast): > 25 µM | GI50 (BT-549 breast): 15.6 µM | TGI (BT-549 breast): > 25 µM | GI50 (SF-268 CNS): 16 µM | TGI (SF-268 CNS): > 25 µM | GI50 (SF-295 CNS): 24.7 µM | TGI (SF-295 CNS): > 25 µM | GI50 (IGROV1 ovarian): 6.25 µM | TGI (IGROV1 ovarian): > 25 µM | GI50 (EKVX NSCLC): 0.313 µM | TGI (EKVX NSCLC): > 25 µM | GI50 (NCI-H23 lung): 13.2 µM | TGI (NCI-H23 lung): > 25 µM | GI50 (NCI/ADR-RES ovarian): 8.17 µM | TGI (NCI/ADR-RES ovarian): > 25 µM | GI50 (SN12C renal): 12.7 µM | TGI (SN12C renal): > 25 µM | GI50 (A549 NSCLC): 14.6 µM | TGI (A549 NSCLC): > 25 µM | GI50 (LOX IMVI melanoma): 6.52 µM | TGI (LOX IMVI melanoma): 19.8 µM | GI50 (MALME-3M melanoma): 14.9 µM | TGI (MALME-3M melanoma): > 25 µM | GI50 (OVCAR-5 ovarian): 7.89 µM | TGI (OVCAR-5 ovarian): > 25 µM | GI50 (A498 renal): 4.29 µM | TGI (A498 renal): > 23.7 µM | GI50 (MOLT-4 leukemia): 8.81 µM | TGI (MOLT-4 leukemia): > 25 µM | GI50 (UACC-257 melanoma): > 25 µM | TGI (UACC-257 melanoma): > 25 µM | GI50 (SK-MEL-28 melanoma): > 25 µM | TGI (SK-MEL-28 melanoma): > 25 µM | GI50 (MDA-MB-435): 11 µM | TGI (MDA-MB-435): > 25 µM | GI50 (DU-145 prostate): 10.5 µM | TGI (DU-145 prostate): > 25 µM | GI50 (SNB-19 CNS): > 25 µM | TGI (SNB-19 CNS): > 25 µM | GI50 (HT29 colon): 10.3 µM | TGI (HT29 colon): > 25 µM | GI50 (OVCAR-3 ovarian): 10.6 µM | TGI (OVCAR-3 ovarian): > 25 µM | GI50 (RPMI-8226 leukemia): 11.7 µM | TGI (RPMI-8226 leukemia): > 25 µM | GI50 (HCC-2998 colon): 15.1 µM | TGI (HCC-2998 colon): > 25 µM | GI50 (SK-MEL-5 melanoma): 4.91 µM | TGI (SK-MEL-5 melanoma): > 25 µM | GI50 (HCT-116 colon): 11 µM | TGI (HCT-116 colon): > 25 µM | GI50 (HOP-62 NSCLC): > 25 µM | TGI (HOP-62 NSCLC): > 25 µM | GI50 (SW-620 colon): 11.7 µM | TGI (SW-620 colon): > 25 µM | GI50 (RXF 393 renal): 10.8 µM | TGI (RXF 393 renal): > 23.5 µM | GI50 (OVCAR-8 ovarian): 9.75 µM | TGI (OVCAR-8 ovarian): > 25 µM | GI50 (UO-31 renal): 5.56 µM | TGI (UO-31 renal): > 25 µM | GI50 (PC-3 prostate): 10.9 µM | TGI (PC-3 prostate): > 25 µM | GI50 (KM12 colon): 9.34 µM | TGI (KM12 colon): > 25 µM | GI50 (HCT-15 colon): 10.2 µM | TGI (HCT-15 colon): > 25 µM | GI50 (HS 578T breast): 6.13 µM | TGI (HS 578T breast): > 20.4 µM | GI50 (SK-MEL-2 melanoma): 17.3 µM | TGI (SK-MEL-2 melanoma): > 25 µM | GI50 (SR leukemia): 8.93 µM | TGI (SR leukemia): > 25 µM | GI50 (UACC-62 melanoma): > 22.3 µM | TGI (UACC-62 melanoma): > 25 µM | GI50 (HL-60(TB) leukemia): 11.2 µM | TGI (HL-60(TB) leukemia): > 25 µM | GI50 (NCI-H460 lung): 10.9 µM | TGI (NCI-H460 lung): > 25 µM | GI50 (K-562 leukemia): 9.98 µM | TGI (K-562 leukemia): > 25 µM | GI50 (SK-OV-3 ovarian): 0.107 µM | TGI (SK-OV-3 ovarian): > 25 µM | GI50 (TK-10 renal): 1.19 µM | TGI (TK-10 renal): > 25 µM | GI50 (OVCAR-4 ovarian): 11.4 µM | TGI (OVCAR-4 ovarian): > 25 µM | GI50 (786-0 renal): 14.9 µM | TGI (786-0 renal): > 25 µM | GI50 (SNB-75 CNS): > 17.1 µM | TGI (SNB-75 CNS): > 25 µM | GI50 (ACHN renal): 1.73 µM | TGI (ACHN renal): > 25 µM | GI50 (SF-539 CNS): > 25 µM | TGI (SF-539 CNS): > 25 µM | GI50 (CAKI-1 renal): 0.896 µM | TGI (CAKI-1 renal): > 25 µM | GI50 (CCRF-CEM leukemia): 9.45 µM | TGI (CCRF-CEM leukemia): > 25 µM | GI50 (NCI-H226 lung): > 25 µM | TGI (NCI-H226 lung): > 25 µM | GI50 (NCI-H522 lung): 4.3 µM | TGI (NCI-H522 lung): > 18.5 µM | GI50 (M14 melanoma): 11.7 µM | TGI (M14 melanoma): > 25 µM | GI50 (MCF7 breast): 8.66 µM | TGI (MCF7 breast): > 25 µM | GI50 (T-47D breast): 5.48 µM | TGI (T-47D breast): > 23.7 µM | GI50 (U251 CNS): 15.2 µM | TGI (U251 CNS): > 25 µM | GI50 (COLO 205 colon): > 19.1 µM | TGI (COLO 205 colon): > 25 µM
